Measured values from patent US8362000B2, “Azetidinyl diamides as monoacylglycerol lipase inhibitors” (Janssen Pharmaceutica NV, priority 2009, dated 2013).
Where two headings read alike, the source gives them in different places.

Biological target: T1, mutant MGL (Homo sapiens, UniProt Q99685, L169S/L176S)
T1 sequence (Q99685 1-303 L169S/L176S): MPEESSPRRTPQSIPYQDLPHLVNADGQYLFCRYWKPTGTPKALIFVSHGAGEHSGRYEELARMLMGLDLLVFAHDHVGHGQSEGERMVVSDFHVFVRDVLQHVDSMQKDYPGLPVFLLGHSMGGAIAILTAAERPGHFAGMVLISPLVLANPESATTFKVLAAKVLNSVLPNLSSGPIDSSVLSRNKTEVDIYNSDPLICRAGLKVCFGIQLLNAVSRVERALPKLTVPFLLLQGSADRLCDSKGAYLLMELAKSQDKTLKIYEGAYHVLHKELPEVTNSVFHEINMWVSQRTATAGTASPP
Assay: MGL ThermoFluor assay - mutant
Assay type: binding

[1] = ThermoFluor concentration-response, read-out: MGL mutant ThermoFluor Kd
[2] = ThermoFluor thermal stability binding assay, read-out: MGL mutant ThermoFluor Kd

SMILES: O=C(c1ccccc1)N1CCN(C2CN(C(=O)c3cccn(Cc4cccc(Cl)c4)c3=O)C2)CC1 [Cpd 562, 1-(3-Chlorobenzyl)-3-({3-[4-(phenylcarbonyl)piperazin-1-yl]azetidin-1-yl}carbonyl)pyridin-2(1H)-one]
- Kd [1]: > 31.2 µM

SMILES: O=C(c1ccccc1)N1CCN(C2CN(C(=O)c3ccc(=O)n(Cc4ccccc4)c3)C2)CC1 [Cpd 565, 1-Benzyl-5-({3-[4-(phenylcarbonyl)piperazin-1-yl]azetidin-1-yl}carbonyl)pyridin-2(1H)-one]
- Kd [1]: > 31.2 µM

SMILES: N#Cc1ccccc1-n1ccc2cc(C(=O)N3CC(N4CCN(C(=O)c5ccccc5)CC4)C3)ccc21 [Cpd 588, 2-[5-({3-[4-(Phenylcarbonyl)piperazin-1-yl]azetidin-1-yl}carbonyl)-1H-indol-1-yl]benzonitrile]
- Kd (ThermoFluor, compound concentration measured by qNMR, read-out: MGL mutant ThermoFluor qKd (μM) (using qNMR conc.)): 0.512 µM

SMILES: O=C(c1ccccc1)N1CCN(C2CN(C(=O)c3ccc4c(ccn4-c4ncc(F)cn4)c3)C2)CC1 [Cpd 598, 1-(5-Fluoropyrimidin-2-yl)-5-({3-[4-(phenylcarbonyl)piperazin-1-yl]azetidin-1-yl}carbonyl)-1H-indole]
- Kd [1]: 0.249 µM

SMILES: Cc1nc(-c2cccc(C(F)(F)F)c2)sc1C(=O)N1CC(N2CCN(C(=O)c3ccccc3)CC2)C1 [Cpd 618, 1-[1-({4-Methyl-2-[3-(trifluoromethyl)phenyl]-1,3-thiazol-5-yl}carbonyl)azetidin-3-yl]-4-(phenylcarbonyl)piperazine]
- Kd [1]: 0.08 µM

SMILES: Cc1nc(-c2ccc(Cl)cc2)sc1C(=O)N1CC(N2CCN(C(=O)c3ccccc3)CC2)C1 [Cpd 619]
- Kd [1]: 0.172 µM

SMILES: Cc1nc(-c2cccc(Cl)c2)sc1C(=O)N1CC(N2CCN(C(=O)c3ccccc3)CC2)C1 [Cpd 620, 1-(1-{[2-(3-Chlorophenyl)-4-methyl-1,3-thiazol-5-yl]carbonyl}azetidin-3-yl)-4-(phenylcarbonyl)piperazine]
- Kd [1]: 0.154 µM

SMILES: Cc1nc(-c2ccc(F)cc2)sc1C(=O)N1CC(N2CCN(C(=O)c3ccccc3)CC2)C1 [Cpd 621, 1-(1-{[2-(4-Fluorophenyl)-4-methyl-1,3-thiazol-5-yl]carbonyl}azetidin-3-yl)-4-(phenylcarbonyl)piperazine]
- Kd [1]: 0.263 µM

SMILES: O=C(c1ccccc1)N1CCN(C2CN(C(=O)c3ccc(-n4ccc(C(F)(F)F)n4)cc3)C2)CC1 [Cpd 622, 1-(Phenylcarbonyl)-4-[1-({4-[3-(trifluoromethyl)-1H-pyrazol-1-yl]phenyl}carbonyl)azetidin-3-yl]piperazine]
- Kd [1]: 3.6 µM

SMILES: Cc1oc(-c2ccccc2)cc1C(=O)N1CC(N2CCN(C(=O)c3ccccc3)CC2)C1 [Cpd 623, 1-{1-[(2-Methyl-5-phenylfuran-3-yl)carbonyl]azetidin-3-yl}-4-(phenylcarbonyl)piperazine]
- Kd [1]: 1 µM

SMILES: O=C(c1ccccc1)N1CCN(C2CN(C(=O)c3cc(-c4ccccc4)oc3C(F)(F)F)C2)CC1 [Cpd 624, 1-(Phenylcarbonyl)-4-(1-{[5-phenyl-2-(trifluoromethyl)furan-3-yl]carbonyl}azetidin-3-yl)piperazine]
- Kd [1]: 0.88 µM

SMILES: O=C(c1ccccc1)N1CCN(C2CN(C(=O)c3nc(-c4ccccc4)oc3C(F)(F)F)C2)CC1 [Cpd 625, 1-(Phenylcarbonyl)-4-(1-{[2-phenyl-5-(trifluoromethyl)-1,3-oxazol-4-yl]carbonyl}azetidin-3-yl)piperazine]
- Kd [1]: > 31.2 µM

SMILES: O=C(c1ccccc1)N1CCN(C2CN(C(=O)c3cnn(-c4ccccc4)c3C(F)(F)F)C2)CC1 [Cpd 626, 1-(Phenylcarbonyl)-4-(1-{[1-phenyl-5-(trifluoromethyl)-1H-pyrazol-4-yl]carbonyl}azetidin-3-yl)piperazine]
- Kd [1]: 5.02 µM

SMILES: O=C(c1ccccc1)N1CCN(C2CN(C(=O)c3cccc(-n4cccc4)c3)C2)CC1 [Cpd 627, 1-(Phenylcarbonyl)-4-(1-{[3-(1H-pyrrol-1-yl)phenyl]carbonyl}azetidin-3-yl)piperazine]
- Kd [1]: 10 µM

SMILES: O=C(c1cscn1)N1CCN(C2CN(C(=O)C3CCC(c4ccc(Cl)cc4)CC3)C2)CC1 (stereo not shown) [Cpd 643]
- Kd [1]: 1 µM

SMILES: O=C(c1cscn1)N1CCN(C2CN(C(=O)C3CCC(C(F)(F)F)CC3)C2)CC1 (stereo not shown) [Cpd 644]
- Kd [1]: > 76.7 µM

SMILES: O=C(c1cc(Br)cc(C(F)(F)F)c1)N1CC(N2CCN(C(=O)c3nccs3)CC2)C1 [Cpd 910]
- Kd [1]: 1.33 µM

SMILES: O=C(c1ccc2[nH]ccc2c1)N1CC(N2CCN(C(=O)c3nccs3)CC2)C1 [Cpd 911, 5-({3-[4-(1,3-Thiazol-2-ylcarbonyl)piperazin-1-yl]azetidin-1-yl}carbonyl)-1H-indole]
- Kd [1]: 0.333 µM

SMILES: O=C(c1cc(F)cc(Br)c1)N1CC(N2CCN(C(=O)c3nccs3)CC2)C1 [Cpd 912]
- Kd [1]: 1.32 µM

SMILES: O=C(c1ccc(Oc2ccccn2)cc1)N1CC(N2CCN(C(=O)c3nccs3)CC2)C1 [Cpd 913, 1-(1-{[4-(Pyridin-2-yloxy)phenyl]carbonyl}azetidin-3-yl)-4-(1,3-thiazol-2-ylcarbonyl)piperazine]
- Kd [1]: 1 µM

SMILES: O=C(c1nccs1)N1CCN(C2CN(C(=O)c3cc(Br)ccc3F)C2)CC1 [Cpd 915]
- Kd [1]: 5 µM

SMILES: CC(=O)N1c2ccc(-c3cccc(C(F)(F)F)c3)cc2CCC1C(=O)N1CC(N2CCN(C(=O)c3nccs3)CC2)C1 (stereo not shown) [Cpd 917]
- Kd [2]: 5 µM

SMILES: O=C1Cc2cc(C(=O)N3CC(N4CCN(C(=O)c5nccs5)CC4)C3)ccc2N1 [Cpd 918]
- Kd [2]: 2.5 µM

SMILES: O=C(c1cnon1)N1CC(N2CCN(C(=O)c3cc4cc(C(F)(F)F)ccc4s3)CC2)C1 [Cpd 921, 1-[1-(1,2,5-Oxadiazol-3-ylcarbonyl)azetidin-3-yl]-4-{[5-(trifluoromethyl)-1-benzothiophen-2-yl]carbonyl}piperazine]
- Kd [1]: 4.26 µM

SMILES: O=C(c1ccc(Oc2ccccn2)cc1)N1CC(N2CCN(C(=O)c3cscn3)CC2)C1 [Cpd 922]
- Kd [1]: 3.89 µM

SMILES: O=C(c1cc(Br)cc(C(F)(F)F)c1)N1CC(N2CCN(C(=O)c3cscn3)CC2)C1 [Cpd 923]
- Kd [1]: 9.93 µM

SMILES: O=C(c1cscn1)N1CCN(C2CN(C(=O)c3cc(Br)ccc3F)C2)CC1 [Cpd 925]
- Kd [1]: > 62.5 µM

SMILES: O=C(c1cc(F)cc(Br)c1)N1CC(N2CCN(C(=O)c3cscn3)CC2)C1 [Cpd 926]
- Kd [1]: 9.44 µM

SMILES: O=C(c1ccc(CSc2cccc(Cl)c2)cc1)N1CC(N2CCN(C(=O)C(F)(F)F)CC2)C1 [Cpd 955]
- Kd [1]: 1.11 µM

SMILES: O=C(c1ccc(OCc2cccc(Cl)c2)cc1)N1CC(N2CCN(C(=O)C(F)(F)F)CC2)C1 [Cpd 958]
- Kd [1]: 0.216 µM

SMILES: O=C(c1ccc(OCc2ccc(Cl)s2)cc1)N1CC(N2CCN(C(=O)C(F)(F)F)CC2)C1 [Cpd 961]
- Kd [1]: 0.576 µM

SMILES: O=C(c1ccc(OCc2ccc(Cl)s2)cc1)N1CC(N2CCN(C(=O)c3nccs3)CC2)C1 [Cpd 962]
- Kd [2]: 0.005 µM

SMILES: O=C(c1ccc(OCc2ccc(Cl)s2)cc1)N1CC(N2CCN(C(=O)c3cscn3)CC2)C1 [Cpd 963]
- Kd [2]: 0.102 µM

SMILES: Cc1nc(COc2ccc(Cl)cc2)sc1C(=O)N1CC(N2CCN(C(=O)c3cscn3)CC2)C1 [Cpd 966]
- Kd [1]: 0.334 µM

SMILES: O=C(c1ccc(OCc2ccc3ccccc3n2)cc1)N1CC(N2CCN(C(=O)c3cscn3)CC2)C1 [Cpd 970]
- Kd [2]: 0.535 µM

SMILES: O=C(c1ccc(CS(=O)(=O)c2cccc(C(F)(F)F)c2)cc1)N1CC(N2CCN(C(=O)c3cscn3)CC2)C1 [Cpd 977]
- Kd [1]: 20 µM

SMILES: O=C(c1ccc(OCc2cncc(Cl)c2)cc1)N1CC(N2CCN(C(=O)c3cscn3)CC2)C1 [Cpd 981]
- Kd [2]: 0.937 µM

SMILES: O=C(c1ccc(Cc2ccc(C(F)(F)F)cc2)cc1)N1CC(N2CCN(C(=O)c3nccs3)CC2)C1 [Cpd 985]
- Kd [1]: 0.005 µM

SMILES: O=C(c1ccc2c(ccn2C(=O)c2ccc3c(c2)CCN3)c1)N1CC(N2CCN(C(=O)c3nccs3)CC2)C1 [Cpd 988, 1-(2,3-Dihydro-1H-indol-5-ylcarbonyl)-5-({3-[4-(1,3-thiazol-2-ylcarbonyl)piperazin-1-yl]azetidin-1-yl}carbonyl)-1H-indole]
- Kd [1]: 0.04 µM

SMILES: O=C(c1nccs1)N1CCN(C2CN(C(=O)c3cccc4nc(Cc5ccccc5F)[nH]c34)C2)CC1 [Cpd 989]
- Kd [2]: 1.25 µM

SMILES: O=C(c1nccs1)N1CCN(C2CN(C(=O)c3cccc4nc(Cc5cccc(F)c5)[nH]c34)C2)CC1 [Cpd 990]
- Kd [2]: 1 µM

SMILES: O=C(c1nccs1)N1CCN(C2CN(C(=O)c3cccc4nc(Cc5ccc(Cl)cc5)[nH]c34)C2)CC1 [Cpd 991]
- Kd [2]: 0.2 µM

SMILES: Cc1ccnc(-n2ccc3cc(C(=O)N4CC(N5CCN(C(=O)C(F)(F)F)CC5)C4)ccc32)c1 [Cpd 1199, 1-(4-Methylpyridin-2-yl)-5-({3-[4-(trifluoroacetyl)piperazin-1-yl]azetidin-1-yl}carbonyl)-1H-indole]
- Kd (ThermoFluor, compound concentration measured by qNMR, read-out: MGL mutant ThermoFluor qKd (using qNMR conc.)): 0.264 µM

SMILES: O=C(c1ccc2c(ccn2-c2ncc(F)cn2)c1)N1CC(N2CCN(C(=O)c3cscn3)CC2)C1 [Cpd 1248, 1-(5-Fluoropyrimidin-2-yl)-5-({3-[4-(1,3-thiazol-4-ylcarbonyl)piperazin-1-yl]azetidin-1-yl}carbonyl)-1H-indole]
- Kd [1]: 0.043 µM

SMILES: COc1cc(C(=O)N2CC(N3CCN(C(=O)c4nccs4)CC3)C2)ccc1-c1ccccc1 [Cpd 1377]
- Kd [1]: 0.006 µM

SMILES: O=C(c1cscn1)N1CCN(C2CN(C(=O)c3cccc4nc(-c5ccc(Cl)cc5)oc34)C2)CC1 [Cpd 1380, 2-(4-Chlorophenyl)-7-({3-[4-(1,3-thiazol-4-ylcarbonyl)piperazin-1-yl]azetidin-1-yl}carbonyl)-1,3-benzoxazole]
- Kd [2]: 0.246 µM

SMILES: O=C(c1ccc(-c2ccccc2)cc1)N1CCN(C2CN(C(=O)c3ccc[nH]3)C2)CC1 [Cpd 1383, 1-(Biphenyl-4-ylcarbonyl)-4-[1-(1H-pyrrol-2-ylcarbonyl)azetidin-3-yl]piperazine]
- Kd [1]: 0.108 µM

SMILES: O=C(c1nccs1)N1CCN(C2CN(C(=O)c3nc(-c4ccccc4)oc3C(F)(F)F)C2)CC1 [Cpd 1385]
- Kd [2]: 0.206 µM

SMILES: Cc1nc(-c2ccc(F)cc2)sc1C(=O)N1CC(N2CCN(C(=O)c3cscn3)CC2)C1 [Cpd 1386]
- Kd [2]: 0.133 µM
